Data: US20080039461A1, “Treatment of pain by inhibition of p38 map kinase” (priority 2002, published 2008)

Tests used:
Type in all cases: in vivo, rat
[1] = system: thermal hyperalgesia induced by IT sP; test: thermal hyperalgesia evoked by intrathecal substance P; details: intrathecal pretreatment (-10 min); sP 30 nmol/10 μL
Method: (The inhibitory activity of SD for p38 alpha and p38 beta was evaluated with an assay using recombinant (E. coli) human enzymes and myelin basic protein as a substrate by the methods of Clerk and Kumar respectively. See A. Clerk, P. […]. Sugden, FEBS Lett 426, 93-6. (1998) and S. Kumar, et al., Biochem Biophys Res Commun 235, 533-8. (1997).
(§1) Male Sprague-Dawley rats (300-350 g) were implanted under isoflurane anesthesia with lumbar polyethylene (PE-10) catheters according to a modified method originally described in Physiol. Behav. 17, 1031 (1976). […] IT saline and 5% DMSO alone had no effect on behavior or protein expression/phosphorylation.

[2] = system: NMDA-induced hyperalgesia; test: hyperalgesia induced by intrathecal NMDA; details: IT NMDA 0.3 μg; MK801 10 μg, IT SD 3-60 μg, IT SB 1-30 μg, SA 10 μg
Excerpt: as §1

[3] = system: formalin-induced flinching behavior; test: formalin-induced flinching (paw formalin model); details: intrathecal pre-treatment (-10 min)
Method: An evaluation was conducted to determine presence or lack thereof for an afferent-mediated induction of phosphorylated (activated) spinal p38 MAPK. A formalin mediated hyperalgesia model was utilized to conduct the evaluation. (In the formalin model, a standard dose of formalin is injected into the rat paw, and flexions of the paw are quantitated over the following 90 minute period. A biphasic response pattern is typically observed, with numerous responses observed during the period five minutes after injection (Phase 1) and a second phase (Phase 2), which occurs during the period about 10-60 minutes following injection. The mean number of flinches per minute is recorded as a function of time. Quantitation of responses during each phase can be accomplished by calculation of area under the curve of flinches/minute.) The formalin induction model reflects several levels of processing of nociceptive information in the spinal cord. See, e.g., U.S. Pat. No. 6,166,085. […] This second phase is thought to represent a state of facilitated processing evoked by the afferent input present during phase I and to involve release of at least two substances, glutamate and a tachykinin, based on pharmacological evidence. Injection of formalin into the paw evokes an initial burst of afferent input followed by a persistent low level discharge. […]

[4] = system: carrageenan-induced thermal hyperalgesia; test: carrageenan-induced thermal hyperalgesia (Hargreaves-type device)
Method: Hyperalgesia was induced in the rat's right hindpaw by intraplantar injection of carrageenan (2 mg in 0.1 ml of a […] solution (weight/volume) in physiological saline). To assess the thermally evoked paw withdrawal time, a device modeled after that described by Hargreaves (1988) was used. See Hargreaves K, Dubner R, Brown F, Flores C, Joris J. A new and sensitive method for measuring thermal nociception in cutaneous hyperalgesia, Pain, 32, 77-88 (1988). The device consisted of a glass surface on top of which the rats were placed. The glass surface was heated by a focused projection bulb below the glass surface. The first sign of discomfort is usually expressed as an attempt to sit up and lick the forepaws by the experimental animal. This response indicates a threshold of pain under the predetermined conditions. Dancing and jumping about by an undrugged animal is an indicator of unbearable pain; whereas drugged animals more commonly withdraw the hind paws and keep them close to their abdomen. A timer was actuated with the light source and latency defined as the time required for the paw to be withdrawn from the glass surface. See Dirig D M, Isakson P C, and Yaksh T L. J Pharmacol Exp Ther., 285, 1031-8 (1998).

C[S+]([O-])c1ccc(-c2nc(-c3ccncc3)c(-c3ccc(F)cc3)[nH]2)cc1 (centres unmarked) [SB, SB203580] was tested. Which “thermal hyperalgesia induced by IT sP” value [1] did it give?
Its value is “blocked the thermal hyperalgesia induced by IT sP in a dose dependent fashion”.

And the “hyperalgesia induced by IT NMDA” value [2]?
The value was “reversed in a dose dependent fashion”.

What about the “second phase of flinching behavior induced by formalin” value [3] of the same compound?
The value was “potent dose-dependent attenuation”.

What about the carrageenan-induced thermal hyperalgesia ([4]; intrathecal pre-treatment (-10 min)) of the same compound?
The carrageenan-induced thermal hyperalgesia was “potent dose-dependent suppression”.

And the “response latency of the uninduced paw” value ([4]; intrathecal, even after the highest doses)?
Its value is “no changes”.
